Reference: patent US12552783B2, “Modulators of proteolysis and associated methods of use” (Arvinas Operations, Inc., priority 2018, dated 2026)

Target: KRas (Homo sapiens, UniProt P01116, G12C)
Test: KRas degradation in SW1573 cells by Western blot, normalized to GAPDH (data of Table 14)
Assay type: cell-based
Conditions: SW1573 cells
How it was run: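 SW1573 cells, homozygous for the KRas G12C mutation and maintained in DMEM with 10% FBS and 1% penicillin-streptomycin, were seeded in 12-well plates, allowed to attach overnight at 37° C. under 5% CO2, then serum-starved for 24 hours before compound exposure. KRas levels were measured by Western blot, normalized to GAPDH, and compared with DMSO controls to give percent degradation, DC50 and Dmax.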

| Compound | Percent Degradation at Indicated Concentration (μM) (0.1 μM) | Percent Degradation at Indicated Concentration (μM) (0.3 μM) | Percent Degradation at Indicated Concentration (μM) (1 μM) | Percent Degradation at Indicated Concentration (μM) (3 μM) | Percent Degradation at Indicated Concentration (μM) (0.03 μM) | Dmax |
| --- | --- | --- | --- | --- | --- | --- |
| C=CC(=O)N1CCN(c2nc(O[C@H](C)CN3CCC(OCCOCCOc4cc(-c5scnc5C)ccc4CNC(=O)[C@@H]4C[C@@H](O)CN4C(=O)[C@H](c4cc(C)no4)C(C)C)CC3)nc3c2CCN(c2cc(O)cc4ccccc24)C3)CC1 [compound 439, (2S,4R)-N-(2-(2-(2-((1-((R)-2-((4-(4-acryloylpiperazin-1-yl)-7-(3-hydroxynaphthalen-1-yl)-5,6,7,8-tetrahydropyrido[3,4-d]pyrimidin-2-yl)oxy)propyl)piperidin-4-yl)oxy)ethoxy)ethoxy)-4-(4-methylthiazol-5-yl)benzyl)-4-hydroxy-1-((S)-3-methyl-2-(3-methylisoxazol-5-yl)butanoyl)pyrrolidine-2-carboxamide] | C (Percent Degradation: C ≤ 35) | C (Percent Degradation: C ≤ 35) | C (Percent Degradation: C ≤ 35) |  |  |  |
| Cc1ncsc1-c1ccc([C@H](C)NC(=O)[C@@H]2C[C@@H](O)CN2C(=O)[C@@H](NC(=O)COCCOC2CCN(C[C@@H](C)Oc3nc(N4CCN(C(=O)C(O)O)CC4)c4cc(Cl)c(-c5cc(O)cc6ccccc56)c(F)c4n3)CC2)C(C)(C)C)cc1 [compound 244, (2S,4R)-1-((2S)-2-(2-(2-((1-((2R)-2-((6-chloro-4-(4-(2,2-dihydroxyacetyl)piperazin-1-yl)-8-fluoro-7-(3-hydroxynaphthalen-1-yl)quinazolin-2-yl)oxy)propyl)piperidin-4-yl)oxy)ethoxy)acetamido)-3,3-dimethylbutanoyl)-4-hydroxy-N-((S)-1-(4-(4-methylthiazol-5-yl)phenyl)ethyl)pyrrolidine-2-carboxamide] |  | C (Percent Degradation: C ≤ 35) | C (Percent Degradation: C ≤ 35) | C (Percent Degradation: C ≤ 35) |  |  |
| C=CC(=O)N1CCN(c2nc(O[C@H](C)CN3CCC(OCCOCCOCCOCCOCCOc4cc(C(C(=O)N5C[C@H](O)C[C@H]5C(=O)N[C@@H](C)c5ccc(-c6scnc6C)cc5)C(C)C)on4)CC3)nc3c(F)c(-c4cc(O)cc5ccccc45)c(Cl)cc23)CC1 (stereo in doubt) [compound 532, (2S,4R)-1-((2R)-2-(3-((14-((1-((2R)-2-((4-(4-acryloylpiperazin-1-yl)-6-chloro-8-fluoro-7-(3-hydroxynaphthalen-1-yl)quinazolin-2-yl)oxy)propyl)piperidin-4-yl)oxy)-3,6,9,12-tetraoxatetradecyl)oxy)isoxazol-5-yl)-3-methylbutanoyl)-4-hydroxy-N-((S)-1-(4-(4-methylthiazol-5-yl)phenyl)ethyl)pyrrolidine-2-carboxamide] | C (Percent Degradation: C ≤ 35) | C (Percent Degradation: C ≤ 35) |  |  | C (Percent Degradation: C ≤ 35) |  |
| C=CC(=O)N1CCN(c2nc(OC[C@@H]3C[C@@H](OCCOCCOCCOCCOc4ccc5c(c4)C(=O)N(C4CCC(=O)NC4=O)C5=O)CN3C)nc3c2CCN(c2cccc4ccccc24)C3)C[C@@H]1CC#N (stereo partly drawn) [compound 481, 2-((2S)-1-acryloyl-4-(2-(((2S,4R)-4-(2-(2-(2-(2-((2-(2,6-dioxopiperidin-3-yl)-1,3-dioxoisoindolin-5-yl)oxy)ethoxy)ethoxy)ethoxy)ethoxy)-1-methylpyrrolidin-2-yl)methoxy)-7-(naphthalen-1-yl)-5,6,7,8-tetrahydropyrido[3,4-d]dipyrimidin-4-yl)piperazin-2-yl)acetonitrile] | C (Percent Degradation: C ≤ 35) | C (Percent Degradation: C ≤ 35) | B (35 < B < 70) |  |  | 35 to 70% |
